The values that follow come from patent publication US20260070927A1, “INDAZOLE MACROCYCLES FOR THE TREATMENT OF AUTOIMMUNE DISEASE” (Hoffmann-La Roche Inc., priority 2022, published 2026).

Structures are written as SMILES. Read-outs that look alike come from different tables or passages of the source.

As usually defined, the IC20 is the point of the concentration-response curve where the effect stands at 20%. Higher therefore signals a need for much substance. As a reminder, the clearance is a measure of how efficiently the substance is removed, as volume per time. A low value points to a low capacity for elimination. What is called Cmax is the maximum level reached in the sampled fluid or tissue.

The target of data set [1] is human stimulator of interferon genes (STING) (139-379) (Homo sapiens (Human), UniProt Q86WV6). Description: Microliter plate-based TR-FRET competition-binding assay for binders of STING. Particulars: Alexa488 probe, read-out: FRET_IC50. The gist of the method:
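E. coli-expressed C-terminal flag-tagged STING (139-379) at 2.5 nM with 2.5 nM Tb-anti-Flag and 250 nM Alexa488-labelled active-site probe, 30 min at room temperature. TR-FRET 520/485 nm ratio after 320 nm excitation. Percent inhibition calculated relative to the 2′3′cGAMP positive control.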
In general terms: In TR-FRET formats the signal depends on donor and acceptor labels being close together.

For the next data set, the system named is STING (IFN-β in hPBMC). Description: hPBMC cytokine functional assay (IFN-β decrease after Baculovirus stimulation). In kind it is cell-based. The settings on record: Homo sapiens, Baculovirus MOI 40, 24 hours, read-out: hPBMC_IC50. The gist of the method: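 Thawed hPBMC (70K cells/well) rested ≥3 h, then dosed with compound (final 0.5% DMSO) and infected with Baculovirus at MOI 40. Secreted IFN-β read by HTRF after 24 h at 37 °C. Cell viability checked in parallel by CellTiter-Glo.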

The next data set has as its target hERG channel (Homo sapiens (Human), UniProt Q12809). Description: hERG channel inhibition assay (patch-clamp, CHOhERG cells). The format is cell-based. Particulars: for IC20: human, CHO cells stably expressing hERG (CHOhERG). An excerpt: The hERG K^+ channels were cloned in humans and stably expressed in a CHO (Chinese hamster ovary) cell line. CHOhERG cells (obtained from Roche Palo Alto LLC Cell Core Facilities) were used for patch-clamp (voltage-clamp, whole-cell) experiments. Cells were stimulated by a voltage pattern to activate hERG channels and conduct IKhERG currents (rapid delayed outward rectifier potassium current of the hERG channel). After the cells were stabilized in an internal solution that contains (in mM): KCl 10, KF 100, NaCl 10, HEPES 10, EGTA 20, pH=7.2 with KOH (osmolarity 260-300 mOsm) for a few minutes, the amplitude and kinetics of IKhERG were recorded at a stimulation frequency of 0.1 Hz (6 bpm). Thereafter, the test compound was dissolved in extracellular solution that contains (in mM): NaCl 150, KCl 4, CaCl2 1.2, MgCl2 1, HEPES 10, glucose 5, pH 7.2-7.4 with NaOH (osmolarity 290-330 mOsm), and was added to the preparation at increasing concentrations. For each concentration, an attempt was made to reach a steady-state effect, usually, this was achieved within 3-10 min at which time the next highest concentration was applied. The amplitude and kinetics of IKhERG are recorded in each concentration of the drug which were compared to the control values (taken as 100%).
(The hERG channel carries a current that helps repolarise heart muscle cells.)

A short description of data set [2]: Single dose pharmacokinetics (SDPK) study in male C57BL/6J mice. In kind it is in vivo. The settings on record: mouse; for clearance / AUC / half-life / Vd / Cmax: male, C57BL/6J, plasma; for half-life: read-out: T½ (converted); for Vd: read-out: Vss; for F: dose normalized AUCo-last after IV 1 mg/kg and PO 10 mg/kg. As to the method: Single Dose Pharmacokinetics (SDPK) Study in Male C57BL/6J Mice Pharmacokinetic properties of compounds were assessed by single dose PK studies in Male C57BL/6J Mice (vendor: WTLH-BJ). Briefly, two groups of animals were administered a single dose of respective compound intravenously (IV, bolus) at 1 mg/kg or orally (PO, by gavage) at 10 mg/kg. Blood samples were collected via Jugular vein at 5 min (only for IV), 15 min, 30 min, 1 h, 2 h, 4 h, 7 h and 24 h post-dose. Blood samples were placed into pre-chilled commercial EDTA-K2 tubes (vendor: Jiangsu Kangjian medical supplies co., LTD) and centrifuged at 3,200 g for 10 min at 4° C. to separate plasma from the samples. After centrifugation, the resulting plasma was transferred to clean tubes for bioanalysis with LC/MS/MS. The pharmacokinetic parameters were calculated using noncompartmental analysis. The volume of distribution (Vss), half-life (T1/2) and clearance (CL) were obtained based on the plasma concentration-time curve after IV dose. The peak concentration (Cmax) was recorded directly from experimental observations after PO dose. The area under the plasma concentration-time curve (AUCo-last) was calculated using the linear trapezoidal linear interpolation rule up to the last detectable concentration. The bioavailability (F) was calculated based on the dose normalized AUCo-last after IV and PO dose.

The nature of data set [3]: Metabolic (liver microsomal) stability assay. Particulars: human liver microsomes, 1 μM test compound. Background: Liver microsomes are a subcellular fraction often used to study metabolism.
Procedure: (§1) The liver microsomal stability assay is used for early assessment of metabolic stability of a test compound in liver microsomes.
(§2) Liver microsomes were preincubated with test compound for 10 minutes at 37° C. in 100 mM potassium phosphate buffer, pH 7.4. The reactions were initiated by adding NADPH regenerating system. The final incubation mixtures contained 1 μM test compound, 0.5 mg/mL liver microsomal protein, 1 mM MgCl2, 1 mM NADP, 1 unit/mL isocitric dehydrogenase and 6 mM isocitric acid in 100 mM potassium phosphate buffer, pH 7.4. After incubation times of 0, 3, 6, 9, 15 and 30 minutes at 37° C., 300 μL of cold acetonitrile (including internal standard) was added to 100 μL incubation mixture to terminate the reaction. Following precipitation and centrifugation, the amount of compound remaining in the samples were determined by LC-MS/MS. Controls of no NADPH regenerating system at zero and 30 minutes were also prepared and analyzed.
The conditions of data set [4]: microsomes.
Procedure: as §1, §2
Where [5] appears, read: IV 1 mg/kg, read-out: IV AUCo-last.
Where [6] appears, read: PO 10 mg/kg, read-out: PO AUCo-last.

Chain of human stimulator of interferon genes (STING) (139-379) (Q86WV6 139-379): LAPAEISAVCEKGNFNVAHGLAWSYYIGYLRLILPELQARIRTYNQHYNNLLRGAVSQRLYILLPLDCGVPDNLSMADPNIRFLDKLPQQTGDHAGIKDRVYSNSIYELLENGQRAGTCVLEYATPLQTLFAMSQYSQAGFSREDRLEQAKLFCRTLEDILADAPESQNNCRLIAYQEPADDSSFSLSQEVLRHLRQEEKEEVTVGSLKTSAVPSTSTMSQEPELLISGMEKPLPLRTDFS
Chain of hERG channel (Q12809 whole entry): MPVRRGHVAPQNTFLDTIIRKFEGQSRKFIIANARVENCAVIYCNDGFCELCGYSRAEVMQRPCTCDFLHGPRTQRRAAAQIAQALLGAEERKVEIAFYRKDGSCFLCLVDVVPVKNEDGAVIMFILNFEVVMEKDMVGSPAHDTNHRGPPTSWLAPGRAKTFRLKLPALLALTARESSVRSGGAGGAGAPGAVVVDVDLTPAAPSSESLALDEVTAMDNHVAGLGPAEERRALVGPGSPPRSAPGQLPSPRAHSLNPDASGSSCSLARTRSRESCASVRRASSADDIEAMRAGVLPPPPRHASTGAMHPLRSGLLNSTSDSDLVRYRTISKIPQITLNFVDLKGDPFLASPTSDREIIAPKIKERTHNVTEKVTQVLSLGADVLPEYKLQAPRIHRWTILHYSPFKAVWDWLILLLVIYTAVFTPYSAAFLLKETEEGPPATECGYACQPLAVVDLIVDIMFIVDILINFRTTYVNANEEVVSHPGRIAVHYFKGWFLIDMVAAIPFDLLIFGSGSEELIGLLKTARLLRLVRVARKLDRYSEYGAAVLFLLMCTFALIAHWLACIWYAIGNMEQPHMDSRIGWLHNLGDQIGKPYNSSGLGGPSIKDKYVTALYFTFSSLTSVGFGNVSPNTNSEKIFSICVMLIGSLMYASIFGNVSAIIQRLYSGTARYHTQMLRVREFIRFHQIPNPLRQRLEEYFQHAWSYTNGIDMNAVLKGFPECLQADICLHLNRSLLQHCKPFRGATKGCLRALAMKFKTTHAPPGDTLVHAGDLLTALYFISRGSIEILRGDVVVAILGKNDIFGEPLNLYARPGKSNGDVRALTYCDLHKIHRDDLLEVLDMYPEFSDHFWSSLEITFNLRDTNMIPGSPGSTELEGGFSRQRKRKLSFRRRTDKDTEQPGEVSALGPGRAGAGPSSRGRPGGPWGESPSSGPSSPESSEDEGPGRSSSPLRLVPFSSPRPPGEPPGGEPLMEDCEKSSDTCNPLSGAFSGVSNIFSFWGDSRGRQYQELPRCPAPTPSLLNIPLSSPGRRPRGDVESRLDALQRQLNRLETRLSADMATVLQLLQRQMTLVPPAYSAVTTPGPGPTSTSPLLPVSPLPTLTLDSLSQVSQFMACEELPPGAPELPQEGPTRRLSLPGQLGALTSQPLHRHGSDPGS

Regarding `COc1cc(F)ccc1-n1ncc2c(N3C[C@@H]4C[C@H]3C(=O)N(C)CCCc3c5c(cccc5nn3C)-c3ccnc(n3)N4)ncnc21` [Example 6, (8S,11S)-10-[1-(4-fluoro-2-methoxy-phenyl)pyrazolo[3,4-d]pyrimidin-4-yl]-13,18-dimethyl-5,7,10,13,18,19,26-heptazapentacyclo[15.6.1.1^2,6.1^8,11.0^20,24]hexacosa-1(23),2,4,6(26),17(24),19,21-heptaen-12-one], in data set [1], the IC50 amounted to 5 nM. In the data set with STING (IFN-β in hPBMC), the IC50 turned out to be 588 nM. For the same compound, at hERG channel, the IC50 is greater than 20000 nM and the concentration for an effect of 20% (IC20) was greater than 10000 nM. In data set [2] (IV 1 mg/kg), the clearance was determined as 14.5 mL/min/kg, the half-life is 48 min and the Vd amounted to 0.9 L/kg. Moreover, the AUC in data set [2] (setting [5]) is 1120 ng·h/mL. Also, the Cmax in data set [2] (PO 10 mg/kg) is 2990 ng/mL. The AUC in data set [2] (setting [6]) turned out to be 4740 ng·h/mL. For the same compound, the F in data set [2] turned out to be 42%. The “Clearance of human microsome” value in data set [3] is 15.7 mL/min/kg.

Regarding `CN1CCCc2c3c(cccc3nn2C)-c2ccnc(n2)O[C@H]2C[C@@H](C1=O)N(c1ncnc3c1cnn3-c1ccc(F)cc1F)C2` [Example 11, (8S,11S)-10-[1-(2,4-difluorophenyl)pyrazolo[3,4-d]pyrimidin-4-yl]-13,18-dimethyl-7-oxa-5,10,13,18,19,26-hexazapentacyclo[15.6.1.1^2,6.1^8,11.0^20,24]hexacosa-1(23),2(26),3,5,17(24),19,21-heptaen-12-one], the IC50 in data set [1] is 21.4 nM. Further, the IC50 in the data set on STING (IFN-β in hPBMC) was determined as 803 nM. On hERG channel, the IC50 was greater than 20000 nM and the 20% effect concentration (IC20) is greater than 10000 nM. In addition, in data set [2] (IV 1 mg/kg), the clearance amounted to 11.1 mL/min/kg, the half-life was 60 min and the Vd was 0.8 L/kg. In addition, the AUC in data set [2] (setting [5]) is 1500 ng·h/mL. In data set [2] (PO 10 mg/kg), this compound gave a Cmax of 2780 ng/mL. In addition, the AUC in data set [2] (setting [6]) worked out at 7120 ng·h/mL. This compound gave a F in data set [2] of 48%. In addition, the “Clearance of human microsome” value in data set [3] was found to be 6.1 mL/min/kg.

With `COc1cc(F)ccc1-n1ncc2c(N3C[C@@H]4C[C@H]3C(=O)N(CCCN3CCOCC3)CCCc3c5c(cccc5nn3C)-c3ccnc(n3)N4)ncnc21` [Example 47, (8S,11S)-10-[1-(4-fluoro-2-methoxy-phenyl)pyrazolo[3,4-d]pyrimidin-4-yl]-18-methyl-13-(3-morpholinopropyl)-5,7,10,13,18,19,26-heptazapentacyclo[15.6.1.1^2,6.1^8,11.0^20,24]hexacosa-1(23),2(26),3,5,17(24),19,21-heptaen-12-one], the IC50 in data set [1] worked out at 7.2 nM. In data set [4], the “Clearance of human microsome” value is 6.1 mL/min/kg.
